In article PMC2330188 (Acta Crystallographica Section F: Structural Biology and …, 2007):

Biological target: 5-formyltetrahydrofolate cyclo-ligase (BA4489) (Bacillus anthracis, UniProt A0A6L8PZ12)
Sequence (A0A6L8PZ12 2-192 limits assumed): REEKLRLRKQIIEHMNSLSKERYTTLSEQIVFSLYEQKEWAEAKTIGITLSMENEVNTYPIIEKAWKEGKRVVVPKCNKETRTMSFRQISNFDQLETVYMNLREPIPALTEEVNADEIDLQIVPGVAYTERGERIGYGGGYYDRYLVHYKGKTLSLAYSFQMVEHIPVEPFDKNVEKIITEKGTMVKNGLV

## O=P(O)(O)O [phosphate]
  X-ray crystal structure, 1.6 Å: hydrolysed to ADP and inorganic phosphate
